{"source": "ChEMBL document CHEMBL5352439", "about": "“Design, synthesis, biological evaluation and molecular docking study of novel urea-based benzamide derivatives as potent poly(ADP-ribose) polymerase-1 (PARP-1) inhibitors” (Eur J Med Chem, 2022)", "key": {"[1]": {"tested_on": "HCT-116", "experiment": "Induction of apoptosis in human HCT-116 cells assessed as viable cells at 3.75 uM incubated for 48 hrs by Annexin-V and PI staining based flow cytometry analysis (reference value: 98.60%)", "type": "functional", "settings": "read-out: Activity"}, "[2]": {"tested_on": "HCT-116", "experiment": "Induction of apoptosis in human HCT-116 cells assessed as necrotic cells at 3.75 uM incubated for 48 hrs by Annexin-V and PI staining based flow cytometry analysis (reference value: 0.06%)", "type": "functional"}, "[3]": {"tested_on": "HCT-116", "experiment": "Induction of apoptosis in human HCT-116 cells assessed as early apoptotic cells at 15 uM incubated for 48 hrs by Annexin-V and PI staining based flow cytometry analysis (reference value: 1.26%)", "type": "functional"}, "[4]": {"tested_on": "HCT-116", "experiment": "Inhibition of cell migration in human HCT-116 cells at 7.5 uM incubated for 24 hrs by wound healing assay (reference value: 32.0 %)", "type": "functional"}, "[5]": {"tested_on": "HCT-116", "experiment": "Induction of apoptosis in human HCT-116 cells assessed as late apoptotic cells at 15 uM incubated for 48 hrs by Annexin-V and PI staining based flow cytometry analysis (reference value: 0.06%)", "type": "functional"}, "[6]": {"tested_on": "HCT-116", "experiment": "Induction of apoptosis in human HCT-116 cells assessed as necrotic cells at 15 uM incubated for 48 hrs by Annexin-V and PI staining based flow cytometry analysis (reference value: 0.06%)", "type": "functional"}, "[7]": {"tested_on": "HeLa", "experiment": "Antiproliferative activity against human HeLa cells assessed as inhibition of cell growth incubated for 48 hrs by MTT assay", "type": "functional, cell-based"}, "[8]": {"tested_on": "HeLa", "experiment": "Antiproliferative activity against human HeLa cells assessed as inhibition of cell growth at 20 uM incubated for 48 hrs by MTT assay", "type": "functional"}, "[9]": {"tested_on": "HCT-116", "experiment": "Induction of apoptosis in human HCT-116 cells assessed as viable cells at 7.5 uM incubated for 48 hrs by Annexin-V and PI staining based flow cytometry analysis (reference value: 98.60%)", "type": "functional", "settings": "read-out: Activity"}, "[10]": {"tested_on": "HCT-116", "experiment": "Inhibition of colony formation in human HCT-116 cells at 7.5 uM measured every 3 days for 14 days by crystal violet staining based assay", "type": "functional", "settings": "HCT-116, 336 h, time 14 day"}, "[11]": {"tested_on": "MDA-MB-231", "experiment": "Antiproliferative activity against human MDA-MB-231 cells assessed as inhibition of cell growth incubated for 48 hrs by MTT assay", "type": "functional, cell-based", "settings": "MDA-MB-231, 48 h"}, "[12]": {"tested_on": "HCT-116", "experiment": "Inhibition of colony formation in human HCT-116 cells measured every 3 days for 14 days by crystal violet staining based assay", "type": "functional, cell-based", "settings": "dose 1.88-15 µM, time 14.0 day"}, "[13]": {"tested_on": "A-375", "experiment": "Antiproliferative activity against human A-375 cells assessed as inhibition of cell growth at 20 uM incubated for 48 hrs by MTT assay", "type": "functional"}, "[14]": {"tested_on": "HCT-116", "experiment": "Induction of apoptosis in human HCT-116 cells assessed as early apoptotic cells at 3.75 uM incubated for 48 hrs by Annexin-V and PI staining based flow cytometry analysis (reference value: 1.26%)", "type": "functional"}, "[15]": {"tested_on": "HCT-116", "experiment": "Induction of apoptosis in human HCT-116 cells assessed as viable cells at 15 uM incubated for 48 hrs by Annexin-V and PI staining based flow cytometry analysis (reference value: 98.60%)", "type": "functional", "settings": "read-out: Activity"}, "[16]": {"target": "Poly [ADP-ribose] polymerase 1 (Homo sapiens, UniProt P09874)", "sequence (P09874 whole entry)": "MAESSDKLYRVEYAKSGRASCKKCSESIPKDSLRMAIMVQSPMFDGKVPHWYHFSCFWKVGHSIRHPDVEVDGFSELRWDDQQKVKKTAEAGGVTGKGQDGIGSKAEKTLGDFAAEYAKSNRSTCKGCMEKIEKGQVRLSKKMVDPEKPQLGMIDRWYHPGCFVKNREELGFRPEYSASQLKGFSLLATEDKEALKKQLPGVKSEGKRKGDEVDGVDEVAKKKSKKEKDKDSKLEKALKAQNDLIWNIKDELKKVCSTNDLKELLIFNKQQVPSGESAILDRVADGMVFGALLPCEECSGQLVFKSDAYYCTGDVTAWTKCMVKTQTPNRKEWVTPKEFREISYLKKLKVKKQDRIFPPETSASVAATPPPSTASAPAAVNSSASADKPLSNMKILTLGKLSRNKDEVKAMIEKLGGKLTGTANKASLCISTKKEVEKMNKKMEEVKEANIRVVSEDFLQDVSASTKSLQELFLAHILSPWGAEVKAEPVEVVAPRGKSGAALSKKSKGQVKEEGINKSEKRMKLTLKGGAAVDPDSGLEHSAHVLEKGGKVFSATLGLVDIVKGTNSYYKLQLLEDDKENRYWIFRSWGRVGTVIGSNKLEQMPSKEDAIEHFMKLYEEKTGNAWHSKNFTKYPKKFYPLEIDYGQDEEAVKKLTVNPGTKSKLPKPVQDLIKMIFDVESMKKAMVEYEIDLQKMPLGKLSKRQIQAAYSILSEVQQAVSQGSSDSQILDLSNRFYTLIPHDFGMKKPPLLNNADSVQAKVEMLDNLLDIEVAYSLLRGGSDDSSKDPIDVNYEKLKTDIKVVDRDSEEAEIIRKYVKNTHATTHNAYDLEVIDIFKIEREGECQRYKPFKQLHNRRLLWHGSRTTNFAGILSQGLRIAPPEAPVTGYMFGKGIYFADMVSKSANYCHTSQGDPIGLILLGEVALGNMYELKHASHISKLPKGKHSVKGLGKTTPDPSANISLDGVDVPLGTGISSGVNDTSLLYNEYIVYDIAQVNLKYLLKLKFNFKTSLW", "experiment": "Inhibition of PARP1 (unknown origin) by ELISA"}, "[17]": {"tested_on": "L02", "experiment": "Antiproliferative activity against human L02 cells assessed as inhibition of cell growth […] incubated for 48 hrs by MTT assay", "type": "functional, cell-based", "settings": "L02, 48 h"}, "[18]": {"tested_on": "HCT-116", "experiment": "Antiproliferative activity against human HCT-116 cells assessed as inhibition of cell growth at 20 uM incubated for 48 hrs by MTT assay", "type": "functional"}, "[19]": {"tested_on": "A549", "experiment": "Antiproliferative activity against human A549 cells assessed as inhibition of cell growth at 20 uM incubated for 48 hrs by MTT assay", "type": "functional"}, "[20]": {"tested_on": "HCT-116", "experiment": "Induction of cell cycle arrest in human HCT-116 cells assessed as accumulation of cells at G2/M phase at 7.5 to 10 uM incubated for 48 hrs by propidium iodide staining based flow cytometry analysis (reference value: 27.84 %)", "type": "functional", "settings": "dose 7.5-10 µM"}, "[21]": {"tested_on": "HCT-116", "experiment": "Induction of apoptosis in human HCT-116 cells assessed as early apoptotic cells at 7.5 uM incubated for 48 hrs by Annexin-V and PI staining based flow cytometry analysis (reference value: 1.26%)", "type": "functional"}, "[22]": {"tested_on": "HCT-116", "experiment": "Induction of cell cycle arrest in human HCT-116 cells assessed as decrease in cells at G0/G1 phase at 7.5 to 10 uM incubated for 48 hrs by propidium iodide staining based flow cytometry analysis (reference value: 66.42 %)", "type": "functional", "set-up": "scale not given: the % may be the effect or the level left", "settings": "dose 7.5-10 µM"}, "[23]": {"tested_on": "A-375", "experiment": "Antiproliferative activity against human A-375 cells assessed as inhibition of cell growth incubated for 48 hrs by MTT assay", "type": "functional, cell-based", "settings": "A-375, 48 h"}, "[24]": {"tested_on": "HCT-116", "experiment": "Induction of apoptosis in human HCT-116 cells assessed as late apoptotic cells at 7.5 uM incubated for 48 hrs by Annexin-V and PI staining based flow cytometry analysis (reference value: 0.06%)", "type": "functional"}, "[25]": {"tested_on": "HCT-116", "experiment": "Inhibition of cell migration in human HCT-116 cells at 7.5 uM incubated for 48 hrs by wound healing assay (reference value: 42.8 %)", "type": "functional"}, "[26]": {"tested_on": "A549", "experiment": "Antiproliferative activity against human A549 cells assessed as inhibition of cell growth incubated for 48 hrs by MTT assay", "type": "functional, cell-based", "settings": "A549, 48 h"}, "[27]": {"tested_on": "HCT-116", "experiment": "Induction of apoptosis in human HCT-116 cells assessed as late apoptotic cells at 3.75 uM incubated for 48 hrs by Annexin-V and PI staining based flow cytometry analysis (reference value: 0.06%)", "type": "functional"}, "[28]": {"tested_on": "MDA-MB-231", "experiment": "Antiproliferative activity against human MDA-MB-231 cells assessed as inhibition of cell growth at 20 uM incubated for 48 hrs by MTT assay", "type": "functional"}, "[29]": {"tested_on": "HCT-116", "experiment": "Inhibition of colony formation in human HCT-116 cells at 10 uM measured every 3 days for 14 days by crystal violet staining based assay", "type": "functional", "settings": "HCT-116, 336 h, time 14 day"}, "[30]": {"tested_on": "HCT-116", "experiment": "Inhibition of cell migration in human HCT-116 cells at 15 uM incubated for 48 hrs by wound healing assay (reference value: 42.8 %)", "type": "functional"}, "[31]": {"tested_on": "HCT-116", "experiment": "Inhibition of cell migration in human HCT-116 cells at 15 uM incubated for 24 hrs by wound healing assay (reference value: 32.0 %)", "type": "functional"}, "[32]": {"tested_on": "HCT-116", "experiment": "Induction of apoptosis in human HCT-116 cells assessed as necrotic cells at 7.5 uM incubated for 48 hrs by Annexin-V and PI staining based flow cytometry analysis (reference value: 0.06%)", "type": "functional"}, "[33]": {"tested_on": "HCT-116", "experiment": "Potency index, ratio of olaparib IC50 to test compound IC50 for antiproliferative activity against human HCT-116 cells", "type": "functional"}}, "note": "pIC50: −log10 of the molar value.", "data": [{"smiles": "NC(=O)c1ccccc1NCc1cccc(NC(=O)Nc2cccc(Br)c2)c1", "values": [{"measurement": "viability at 3.75 µM", "setting": "[1]", "result": 89.8, "unit": "%"}, {"measurement": "Activity", "setting": "[2]", "result": 0.1, "unit": "%"}, {"measurement": "Activity", "setting": "[3]", "result": 42.85, "unit": "%"}, {"measurement": "inhibition at 7.5 µM", "setting": "[4]", "result": 21, "unit": "%"}, {"measurement": "Activity", "setting": "[5]", "result": 2.2, "unit": "%"}, {"measurement": "Activity", "setting": "[6]", "result": 0.43, "unit": "%"}, {"measurement": "pIC50", "setting": "[7]", "result": 4.84}, {"measurement": "inhibition at 20 µM", "setting": "[8]", "result": 72.2, "unit": "%"}, {"measurement": "viability at 7.5 µM", "setting": "[9]", "result": 86.3, "unit": "%"}, {"measurement": "inhibition at 7.5 µM", "setting": "[10]", "result": 100, "unit": "%"}, {"measurement": "pIC50", "setting": "[11]", "result": 4.86}, {"measurement": "inhibition", "setting": "[12]", "result": "Dose-Dependent Effect"}, {"measurement": "inhibition at 20 µM", "setting": "[13]", "result": 81.8, "unit": "%"}, {"measurement": "Activity", "setting": "[14]", "result": 9.81, "unit": "%"}, {"measurement": "viability at 15 µM", "setting": "[15]", "result": 54.5, "unit": "%"}, {"measurement": "pIC50", "setting": "[16]", "result": 8.29}, {"measurement": "pIC50", "setting": "[17]", "result": 4.00}, {"measurement": "inhibition at 20 µM", "setting": "[18]", "result": 91, "unit": "%"}, {"measurement": "inhibition at 20 µM", "setting": "[19]", "result": 78.8, "unit": "%"}, {"measurement": "Activity", "setting": "[20]", "result": 34.6, "unit": "%"}, {"measurement": "Activity", "setting": "[21]", "result": 12.93, "unit": "%"}, {"measurement": "Activity", "setting": "[22]", "result": 55.94, "unit": "%"}, {"measurement": "pIC50", "setting": "[23]", "result": 4.82}, {"measurement": "Activity", "setting": "[24]", "result": 0.7, "unit": "%"}, {"measurement": "inhibition at 7.5 µM", "setting": "[25]", "result": 23.3, "unit": "%"}, {"measurement": "pIC50", "setting": "[26]", "result": 4.91}, {"measurement": "Activity", "setting": "[27]", "result": 0.29, "unit": "%"}, {"measurement": "inhibition at 20 µM", "setting": "[28]", "result": 86.8, "unit": "%"}, {"measurement": "inhibition at 10 µM", "setting": "[29]", "result": 100, "unit": "%"}, {"measurement": "inhibition at 15 µM", "setting": "[30]", "result": 24.2, "unit": "%"}, {"measurement": "inhibition at 15 µM", "setting": "[31]", "result": 14.7, "unit": "%"}, {"measurement": "Activity", "setting": "[32]", "result": 0.1, "unit": "%"}, {"measurement": "Ratio IC50", "setting": "[33]", "result": 7.87}]}]}
